“And” between values parts separate entries of the source, which are not always exact repeats. Identical values can stand only once. Like-named read-outs stand apart in the source and are kept apart here.
How the values were obtained:
[1] = target: T1, USP7 (Homo sapiens, UniProt Q93009); assay: Intact protein MS (UHPLC-ESI-MS), covalent modification of USP7; format: binding; settings: 24 h incubation at 20°C, protein-to-compound ratio 1:31.25
T1 construct: USP7 catalytic domain (USP7CD) (208‐560); made in house
T1 sequence (Q93009 with tags, fused parts or gaps): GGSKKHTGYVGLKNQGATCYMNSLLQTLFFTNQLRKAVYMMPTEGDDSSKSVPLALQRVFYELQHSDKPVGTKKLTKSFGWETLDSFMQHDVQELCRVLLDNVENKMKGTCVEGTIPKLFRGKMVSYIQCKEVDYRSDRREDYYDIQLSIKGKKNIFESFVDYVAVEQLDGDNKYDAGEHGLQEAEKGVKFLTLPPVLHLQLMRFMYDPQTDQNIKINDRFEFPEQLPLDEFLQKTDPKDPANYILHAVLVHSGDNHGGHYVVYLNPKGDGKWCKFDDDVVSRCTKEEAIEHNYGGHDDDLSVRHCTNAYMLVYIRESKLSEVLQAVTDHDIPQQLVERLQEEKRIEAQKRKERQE
Protocol: The DSF results described above were validated by UHPLC‐ESI‐MS to verify possible covalent binding through a corresponding mass shift. Intact protein MS is an important screening method in irreversible‐covalent hit identification and is especially suitable for covalent fragment‐based drug discovery (FBDD). It allows for the identification of covalent binders by detecting covalent protein‐compound adducts, thus making use of the stability of the covalent bond.
USP7 was prepared in Tris buffer (25 mM Tris pH 8.0, 150 mM NaCl, 5 mM TCEP) with a protein‐to‐compound ratio of 1:31.25 and 5% (v/v) DMSO. The protein‐compound mixtures were all incubated at 20°C for 24 h on a rotating shaker. The analysis of intact protein mass was carried out using UHPLC‐ESI‐MS measurements, with data acquisition and data analysis as previously described.

[2] = target: T2, USP7asoc (Homo sapiens, UniProt Q93009, C300S/C315S/C334S/C478S/C488S/C510S); assay: Intact protein MS (UHPLC-ESI-MS), covalent modification of USP7asoc; format: binding; settings: 24 h incubation at 20°C, protein-to-compound ratio 1:31.25
T2 construct: (208‐560, C300/315/334/448/478/510S); made in house
T2 sequence (Q93009 with tags, fused parts or gaps C300S/C315S/C334S/C478S/C488S/C510S): as the sequence (Q93009 with tags, fused parts or gaps) above, with C96S, C111S, C130S, C274S, C284S, C306S counted along it
Protocol: The DSF results described above were validated by UHPLC‐ESI‐MS to verify possible covalent binding through a corresponding mass shift. Intact protein MS is an important screening method in irreversible‐covalent hit identification and is especially suitable for covalent fragment‐based drug discovery (FBDD). It allows for the identification of covalent binders by detecting covalent protein‐compound adducts, thus making use of the stability of the covalent bond. USP7 was prepared in Tris buffer (25 mM Tris pH 8.0, 150 mM NaCl, 5 mM TCEP) with a protein‐to‐compound ratio of 1:31.25 and 5% (v/v) DMSO. The protein‐compound mixtures were all incubated at 20°C for 24 h on a rotating shaker. The analysis of intact protein mass was carried out using UHPLC‐ESI‐MS measurements, with data acquisition and data analysis as previously described.

[3] = target: T3, USP7cd (USP7 catalytic domain) (Homo sapiens, UniProt Q93009); assay: Ub-AMC enzyme activity assay, IC50 determination; format: biochemical; settings: 10 nM USP7cd, 500 nM Ub-AMC, 24 h pre-incubation at 20°C
T3 construct: USP7 catalytic domain (USP7CD) (208‐560); made in house
T3 sequence (Q93009 with tags, fused parts or gaps): as the sequence (Q93009 with tags, fused parts or gaps) above
Protocol: Therefore, USP7 was incubated for 24 h with ten different compound concentrations, and IC50 values were then obtained with a fluorescent DUB substrate (Ub‐AMC) (Figure 9A–F). The pre‐incubation times were chosen to account for the slow covalent binding kinetics observed in the previous experiments.
The cleavage activity of USP7cd in the presence or absence of inhibitors was measured using Ubiquitin‐Aminomethylcoumarin (Ub‐AMC) (Enzo Life Sciences GmbH, Lörrach, Germany) as a fluorogenic substrate. The fluorescence was monitored using the CLARIOstar plate reader (BMG Labtech GmbH, Ortenberg, Germany) at 25°C at 360 nm excitation and 460 nm emission wavelengths. […] Each measurement was performed at least twice in duplicate. […] Ub‐AMC was added to a final concentration of 500 nM, and the fluorescence was measured after 1 h. The normalized dose‐response semi‐logarithmic curves were fitted using OriginPro2021 and the four‐parameter logistic function.
Different concentrations of compounds were pre-incubated with USP7 for 24 h at 20 °C in a rotating shaker in 25 mM Tris pH 8.0, 150mM NaCl, 5 mM TCEP supplemented with 0.2 mg/mL bovine serum albumin (BSA). Fluorescence was measured after 1 h of the addition of Ub-AMC. The dose response semi-logarithmic curves were fitted using OriginPro2021 and the four-parameter logistic function.

[4] = target: T1, USP7; assay: Differential scanning fluorimetry (DSF), melting temperature shift of USP7; format: binding; settings: 8 µM protein, 250 µM compound (1:31.25)
[5] = supplement table, read-out: Biological Activity (IC50)

SMILES | protein species in deconvoluted mass spectrum of USP7 [1] | protein species in deconvoluted mass spectrum of USP7asoc [2] | IC50 ([3]; read-out: IC50 USP7cd) | IC50 [3, 5] | ∆T m ± SD USP7 ([4]; 30 min incubation at 20°C) | ∆T m ± SD USP7 ([4]; 4 h incubation at 20°C) | ∆T m ± SD USP7 ([4]; 24 h incubation at 20°C)
Cn1ccc(-c2cccc3cnc(Nc4nc(F)ccc4[N+](=O)[O-])cc23)c1 [7b, N‐(6‐Fluoro‐3‐nitropyridin‐2‐yl)‐5‐(1‐methyl‐1H‐pyrrol‐3‐yl)isoquinolin‐3‐amine] | unmodified protein species as a main peak for both USP7 and USP7asoc | unmodified protein species as a main peak for both USP7 and USP7asoc | 56.6 µM and 57 µM | 56.6 ± 6.11 µM | –0.10 ± 0.09 °C | 0.00 ± 0 °C | 0.00 ± 0 °C
CCn1cc(-c2cccc3cnc(Nc4nc(F)ccc4[N+](=O)[O-])cc23)cn1 [7c, 5‐(1‐Ethyl‐1H‐pyrazol‐4‐yl)‐N‐(6‐fluoro‐3‐nitropyridin‐2‐yl)isoquinolin‐3‐amine] | mainly showed the attachment of a single molecule to USP7 and USP7asoc | mainly showed the attachment of a single molecule to USP7 and USP7asoc | 36.2 µM and 36 µM | 36.2 ± 2.21 µM | –0.45 ± 0.12 °C | –0.45 ± 0 °C | 
CCCn1cc(-c2cccc3cnc(Nc4nc(F)ccc4[N+](=O)[O-])cc23)cn1 [7d, N‐(6‐Fluoro‐3‐nitropyridin‐2‐yl)‐5‐(1‐propyl‐1H‐pyrazol‐4‐yl)isoquinolin‐3‐amine] | single modified protein as the main signal | single modified protein as the main signal | 26.8 µM and 27 µM | 26.8 ± 7.54 µM | –0.30 ± 0.06 °C | –0.18 ± 0.03 °C | 
O=[N+]([O-])c1ccc(F)nc1Nc1cc2c(-c3cnn(C4CC4)c3)cccc2cn1 [7e, 5‐(1‐Cyclopropyl‐1H‐pyrazol‐4‐yl)‐N‐(6‐fluoro‐3‐nitropyridin‐2‐yl)isoquinolin‐3‐amine] | mono‐arylated USP7 and USP7asoc species as main peaks | mono‐arylated USP7 and USP7asoc species as main peaks | 48.4 µM and 48 µM | 48.3 ± 5.68 µM | –0.23 ± 0.06 °C | 0.02 ± 0.03 °C | 
O=[N+]([O-])c1ccc(F)nc1Nc1cc2c(-c3ccc(-c4ccncc4)cc3)cccc2cn1 [7i, N‐(6‐Fluoro‐3‐nitropyridin‐2‐yl)‐5‐[4‐(pyridin‐4‐yl)phenyl]isoquinolin‐3‐amine] | unmodified USP7 and USP7asoc as the main peak | unmodified USP7 and USP7asoc as the main peak | > 1000 µM |  | –0.13 ± 0.09 °C | –0.40 ± 0.08 °C | –0.45 ± 0.09 °C

— publication PMC12336439 (Archiv Der Pharmazie, 2025)
